Laboratory results taken from PubChem BioAssay (NCI).
“And” between values parts separate entries of the source, which are not always exact repeats. Equal values may be shown once.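 Each compound was tested at five concentrations against cells in 96-well plates for 48 hours. GI50 = concentration required for 50% inhibition of growth. TGI denotes the concentration required for complete inhibition of growth.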

What follows are compounds tested on COLO 205 colon (assay: inhibition of tumour cell growth, NCI panel, 48 h).
`CCOc1cc2c(Cl)ncnc2c(OCC)c1OCC` was tested, and the GI50 was 12.2 µM and the TGI was 25.5 µM.
Work on `Oc1ccc2ccccc2c1N=Nc1nccs1` yielded a GI50 of 1.6 µM and a TGI of 13.6 µM.
Compound `CC(=O)OCCN1c2ccccc2Sc2cnccc21` has a TGI of over 10 µM.
Work on `Cn1c(=O)c2[nH]c(SCc3ccccn3)nc2n(C)c1=S` yielded a TGI of over 100 µM.
For `COc1cc2c(c(O)c1Br)C(=O)c1c(O)cc(C[C@H](C)O)cc1[C@H]2[C@H]1c2cc(C[C@H](C)O)cc(O)c2C(=O)c2c1cc(OC)c(Br)c2O`, the GI50 was 2.32 µM and 6.74 µM and the TGI was 9.21 µM and 24.9 µM.
Work on `COc1ccc(-c2cc(=O)c3ccc(O)cc3o2)cc1OC` yielded a TGI of over 100 µM.
For `FC(F)(F)c1cccc(Nc2nccc(-c3cnn4nc(-c5ccccc5)ccc34)n2)c1`, the GI50 was 11.8 µM and the TGI was over 25 µM.
In the case of `Oc1ccc(CN2CCC(N3CCCCC3)CC2)c2cccnc12`, the GI50 is reported as 48.4 µM and the TGI is reported as over 100 µM.
With `CS(=O)(=O)c1ccc([C@H]2O[C@@H](CO)C[C@]2(O)c2ccc(S(C)(=O)=O)cc2)cc1` the GI50 was over 100 µM and the TGI was over 100 µM.
In the case of `COc1ccc(-c2cc(=O)c3c(OC)c(OC)c(OC)cc3o2)cc1`, the TGI is reported as 51.7 µM.

Each compound was assayed on NCI/ADR-RES ovarian (assay: inhibition of tumour cell growth, NCI panel, 48 h).
Compound `CN1CCN(C(=O)OCc2nc3c(N4CCOCC4)nc(Cl)nc3n2C)CC1` has a GI50 of 2.46 µM and a TGI of 9.59 µM.
`COC(=O)[C@]12CC[C@@H](C)[C@H](C)[C@@H]1C1=CC[C@@H]3[C@@]4(C)C/C(=N\O)[C@H](O)[C@@]5(C)COC(=C45)C[C@@]3(C)[C@]1(C)CC2` was tested, and the GI50 was 2.61 µM and the TGI was 7.88 µM.
With `Oc1c(CN2CCC(N3CCCCC3)CC2)cc(Cc2cc(CN3CCC(N4CCCCC4)CC3)c(O)c3ncccc23)c2cccnc12` the GI50 was 3.12 µM and the TGI was 17.9 µM.
For `Cn1c2ccccc2c2c(-c3ccccc3)[n+]3ccncc3nc21`, the GI50 was over 100 µM and the TGI was over 100 µM.
For `C[C@@H]1OC(O)[C@@H](F)[C@H](O)[C@@H]1O` (stereo not given in full), the GI50 was over 100 µM and the TGI was over 100 µM.
For `NC(=O)c1ccc(I)c(N)c1`, the GI50 was over 100 µM and the TGI was over 100 µM.
In the case of `O=C(/C(Br)=C/c1ccccc1)c1ccccc1`, the GI50 is reported as 2.24 µM and the TGI is reported as 6.48 µM.
Work on `C=C1C(=O)O[C@H]2[C@H]1CC/C(Cn1cc(-c3ccc(OC)cc3)nn1)=C\CC[C@@]1(C)O[C@@H]21` yielded a GI50 of 3.08 µM and a TGI of 12.4 µM.
`O=C1CCCCN1CCCCC#Cc1ccccc1C#Cc1ccc([N+](=O)[O-])cc1` was tested, and the GI50 was 3.35 µM and the TGI was 12.3 µM.
For `CCOc1cc2c(Cl)ncnc2c(OCC)c1OCC`, the GI50 was 25.6 µM and the TGI was over 64.3 µM.
For `Oc1ccc2ccccc2c1N=Nc1nccs1`, the GI50 was 0.393 µM.
Compound `CC(=O)OCCN1c2ccccc2Sc2cnccc21` has a TGI of over 10 µM.
`Cn1c(=O)c2[nH]c(SCc3ccccn3)nc2n(C)c1=S` was tested, and the TGI was over 100 µM.
With `COc1cc2c(c(O)c1Br)C(=O)c1c(O)cc(C[C@H](C)O)cc1[C@H]2[C@H]1c2cc(C[C@H](C)O)cc(O)c2C(=O)c2c1cc(OC)c(Br)c2O` the GI50 was 17.5 µM and 28.5 µM and the TGI was 59.9 µM and > 100 µM.
Compound `COc1ccc(-c2cc(=O)c3ccc(O)cc3o2)cc1OC` has a TGI of over 100 µM.
For `FC(F)(F)c1cccc(Nc2nccc(-c3cnn4nc(-c5ccccc5)ccc34)n2)c1`, the GI50 was 8.37 µM and the TGI was over 21.7 µM.
`CCC(C)c1c(Cl)nc(Cl)nc1Cl` (stereo not given) gave a TGI of over 100 µM.
`Oc1ccc(CN2CCC(N3CCCCC3)CC2)c2cccnc12` gave a GI50 of 24.2 µM and a TGI of over 100 µM.
In the case of `CS(=O)(=O)c1ccc([C@H]2O[C@@H](CO)C[C@]2(O)c2ccc(S(C)(=O)=O)cc2)cc1`, the GI50 is reported as over 100 µM and the TGI is reported as over 100 µM.
In the case of `COc1ccc(-c2cc(=O)c3c(OC)c(OC)c(OC)cc3o2)cc1`, the TGI is reported as over 100 µM.

The compounds below were run on HCT-15 colon (assay: inhibition of tumour cell growth, NCI panel, 48 h).
Work on `CN1CCN(C(=O)OCc2nc3c(N4CCOCC4)nc(Cl)nc3n2C)CC1` yielded a GI50 of 0.905 µM and a TGI of 2.79 µM.
Compound `COC(=O)[C@]12CC[C@@H](C)[C@H](C)[C@@H]1C1=CC[C@@H]3[C@@]4(C)C/C(=N\O)[C@H](O)[C@@]5(C)COC(=C45)C[C@@]3(C)[C@]1(C)CC2` has a GI50 of 5.47 µM and a TGI of 17.7 µM.
Compound `Oc1c(CN2CCC(N3CCCCC3)CC2)cc(Cc2cc(CN3CCC(N4CCCCC4)CC3)c(O)c3ncccc23)c2cccnc12` has a GI50 of 0.797 µM and a TGI of 14.6 µM.
`Cn1c2ccccc2c2c(-c3ccccc3)[n+]3ccncc3nc21` showed a GI50 of over 100 µM and a TGI of over 100 µM.
In the case of `C[C@@H]1OC(O)[C@@H](F)[C@H](O)[C@@H]1O` (stereo not given in full), the GI50 is reported as over 100 µM and the TGI is reported as over 100 µM.
In the case of `NC(=O)c1ccc(I)c(N)c1`, the GI50 is reported as over 100 µM and the TGI is reported as over 100 µM.
With `O=C(/C(Br)=C/c1ccccc1)c1ccccc1` the GI50 was 1.02 µM and the TGI was 2.47 µM.
With `C=C1C(=O)O[C@H]2[C@H]1CC/C(Cn1cc(-c3ccc(OC)cc3)nn1)=C\CC[C@@]1(C)O[C@@H]21` the GI50 was 0.338 µM and the TGI was 1.38 µM.
`O=C1CCCCN1CCCCC#Cc1ccccc1C#Cc1ccc([N+](=O)[O-])cc1` gave a GI50 of 1.5 µM and a TGI of 9.89 µM.
Work on `CCOc1cc2c(Cl)ncnc2c(OCC)c1OCC` yielded a GI50 of 2.56 µM and a TGI of 9.07 µM.
`Oc1ccc2ccccc2c1N=Nc1nccs1` gave a GI50 of 0.32 µM and a TGI of 19.6 µM.
`CC(=O)OCCN1c2ccccc2Sc2cnccc21` was tested, and the TGI was over 10 µM.
In the case of `Cn1c(=O)c2[nH]c(SCc3ccccn3)nc2n(C)c1=S`, the TGI is reported as over 100 µM.
With `COc1cc2c(c(O)c1Br)C(=O)c1c(O)cc(C[C@H](C)O)cc1[C@H]2[C@H]1c2cc(C[C@H](C)O)cc(O)c2C(=O)c2c1cc(OC)c(Br)c2O` the GI50 was 10.4 µM and 17.4 µM and the TGI was 67.5 µM and > 100 µM.
Compound `COc1ccc(-c2cc(=O)c3ccc(O)cc3o2)cc1OC` has a TGI of over 100 µM.
Compound `FC(F)(F)c1cccc(Nc2nccc(-c3cnn4nc(-c5ccccc5)ccc34)n2)c1` has a GI50 of 8.5 µM and a TGI of 24.4 µM.
For `CCC(C)c1c(Cl)nc(Cl)nc1Cl` (stereo not given), the TGI was 35.3 µM.
`Oc1ccc(CN2CCC(N3CCCCC3)CC2)c2cccnc12` was tested, and the GI50 was 5.83 µM and the TGI was over 100 µM.
`CS(=O)(=O)c1ccc([C@H]2O[C@@H](CO)C[C@]2(O)c2ccc(S(C)(=O)=O)cc2)cc1` gave a GI50 of over 100 µM and a TGI of over 100 µM.
With `COc1ccc(-c2cc(=O)c3c(OC)c(OC)c(OC)cc3o2)cc1` the TGI was over 100 µM.
